Experimental data: PMC8282186, “Identification of a gustatory receptor tuned to sinigrin in the cabbage butterfly Pieris rapae” (PLoS Genetics, 2021)

Molecular target: T1, PrapGr28 (Pieris rapae, UniProt Z9RYY0XAY3)
T1 construct: also UAS-PrapGr28 in Drosophila Gr5a sweet neurons; oligomer unknown
T1 sequence (Z9RYY0XAY3 1-399): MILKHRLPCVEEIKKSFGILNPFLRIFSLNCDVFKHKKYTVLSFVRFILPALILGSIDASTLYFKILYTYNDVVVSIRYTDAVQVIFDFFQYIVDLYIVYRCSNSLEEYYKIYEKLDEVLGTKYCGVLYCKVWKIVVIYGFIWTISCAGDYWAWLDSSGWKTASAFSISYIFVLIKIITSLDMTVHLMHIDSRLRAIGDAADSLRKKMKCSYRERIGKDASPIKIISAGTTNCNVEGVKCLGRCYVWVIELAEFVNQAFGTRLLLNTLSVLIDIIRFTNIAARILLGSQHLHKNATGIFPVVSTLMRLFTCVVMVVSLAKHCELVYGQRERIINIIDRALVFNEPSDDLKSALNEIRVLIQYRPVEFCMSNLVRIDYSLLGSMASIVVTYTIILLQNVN
Assay: two-electrode voltage clamp, inward current in Xenopus oocytes
Assay type: cell-based
Settings: agonist; PrapGr28 expressed alone; holding potential -80 mV; 0.1-50 mM dose range; also tip recording of Drosophila L-type sensilla expressing PrapGr28
Description: two-electrode voltage clamp, inward current in Xenopus oocytes on […]28 | the oocytes expressing […]28 selectively responded to sinigrin

## C=CC/C(=N/OS(=O)(=O)O)S[C@@H]1O[C@H](CO)[C@@H](O)[C@H](O)[C@H]1O [sinigrin]
  inward current response at 1 mM: the oocytes expressing PrapGr28 selectively responded to sinigrin
